Test results published in paper PMC4251066, “Polyyne Hybrid Compounds from Notopterygium incisum with Peroxisome Proliferator-Activated Receptor Gamma Agonistic Effects” (Journal of Natural Products, 2014).

Legend:
[1] = Stability on exposure to heat or sunlight (observed color change); type: physicochemical; details: elevated temperatures (45 °C) or direct sunlight at ambient temperature for an extended time; visible color change
[2] = molecular target: T1, human PPARγ (Homo sapiens, UniProt P37231); experiment: PPARγ luciferase reporter gene transactivation in HEK-293 cells; details: PPARγ-driven luciferase reporter assay, 18 h
T1 sequence (P37231 1-477 isoform P37231-2): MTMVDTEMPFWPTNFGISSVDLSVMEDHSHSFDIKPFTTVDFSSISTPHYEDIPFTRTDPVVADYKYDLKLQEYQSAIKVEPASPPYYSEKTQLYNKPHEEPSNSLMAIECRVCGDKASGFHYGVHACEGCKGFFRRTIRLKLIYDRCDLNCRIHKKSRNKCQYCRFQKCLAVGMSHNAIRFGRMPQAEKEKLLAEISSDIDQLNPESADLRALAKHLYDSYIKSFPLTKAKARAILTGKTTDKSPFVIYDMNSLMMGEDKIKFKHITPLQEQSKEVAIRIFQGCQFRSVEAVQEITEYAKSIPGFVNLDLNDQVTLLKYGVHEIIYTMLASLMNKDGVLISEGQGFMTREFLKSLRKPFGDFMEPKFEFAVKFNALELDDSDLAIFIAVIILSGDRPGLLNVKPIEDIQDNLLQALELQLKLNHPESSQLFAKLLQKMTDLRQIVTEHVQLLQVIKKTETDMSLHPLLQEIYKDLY
Protocol: For evaluation of PPARγ activation the test compounds were first dissolved in DMSO, divided into aliquots, and frozen at −20 °C until used. In all experiments, DMSO was applied as solvent control, and the final concentration of DMSO was always kept at ≤0.1%. The PPAR luciferase reporter plasmid (tk-PPREx3-luc) was a kind gift from Prof. Ronald M. Evans (Howard Hughes Medical Institute, La Jolla, CA, USA), the plasmid encoding enhanced green fluorescent protein (pEGFP-N1) was supplied by Clontech (Mountain View, CA, USA), and the plasmid encoding human PPARγ (pSG5-PL-hPPAR-γ1) was kindly supplied by Prof. Walter Wahli and Prof. Beatrice Desvergne (Center for Integrative Genomics, University of Lausanne, Switzerland).
The PPARγ luciferase reporter gene assay was performed as previously described.[27] Briefly, HEK-293 cells (ATCC, Manassas, VA, USA) were grown in DMEM with 2 mM glutamine, 10% FBS, 100 U/mL benzylpenicillin, and 100 μg/mL streptomycin. Cells were grown in 10 cm dishes (6 × 10^6 cells/dish) for 18 h and then transfected by the calcium phosphate precipitation method with 4 μg of plasmid encoding human PPARγ (pSG5-PL-hPPAR-γ1), 4 μg of reporter plasmid (tk-PPREx3-luc), and 2 μg of pEGFP-N1 as control for internal normalization.[28] After 6 h, the cells were transferred to 96-well plates (5 × 10^4 cells/well) in DMEM without phenol red supplemented with charcoal-stripped FBS, glutamine, and antibiotics. The cells were treated with different concentrations of the indicated compounds and incubated for 18 h. Cells were then lysed, and the luminescence of the firefly luciferase and the fluorescence of EGFP were quantified with a GeniosPro microplate reader (Tecan, Grödig, Austria). The luminescence was finally normalized to the EGFP-derived fluorescence from each well to account for differences in transfection efficiency or cell number.
Nonlinear regression (with sigmoidal dose response) was used to calculate the EC50 values and maximal fold activation.

[3] = system: NO production in LPS/IFNγ-stimulated RAW 264.7 macrophages; experiment: Inhibition of NO production in stimulated RAW 264.7 macrophages (Griess assay); type: cell-based; details: Mus musculus, RAW264.7, 16 h incubation
Protocol: RAW 264.7 macrophages were stimulated with lipopolysaccharides (LPS) and interferon-γ (IFNγ) for induction of iNOS gene expression. The effects on NO production were determined by photometric quantification of nitrite accumulation in cell culture supernatants using the Griess assay compared with a sodium nitrite standard curve after 16 h of incubation with the respective sample as described by Baer et al. with slight modifications.[29],[30] Activity is referred to nitrite accumulation of cells treated with LPS/IFN-γ/DMSO (final concentration of 0.1% DMSO serves as solvent control). Test compounds were first dissolved in DMSO and then diluted with PBS to obtain respective concentrations. L-NMMA (N-monomethyl-L-arginine), a known nonselective inhibitor of all NOS isoforms, was used as a positive control. IC50 determination was performed in eight concentrations, each in at least three independent experiments, every time in duplicate.
IC50 values for effects on NO production were calculated with the SigmaPlot program package employing the four-parameter logistic regression model. Statistical differences were evaluated using one-way ANOVA. Differences with a p value < 0.05 were considered significant.

Row | SMILES | stability [1] | EC50 [2] [nM] | IC50 [3] [µM] | maximal fold activation [2]
1 | C=C[C@@H](O)C#CC#C[C@H](/C=C\CCCCCCC)OC(=O)/C=C/c1ccc(O)c(OC)c1 [compound 9, Notoincisol A] | unstable | 2300 | 14.6 ± 0.7 | 
2 | C=C[C@H](C#CC#C[C@@H](O)/C=C\CCCCCCC)O[C@]1(C)CC[C@@H](O)[C@]2(C)CC[C@@H](C(C)C)[C@@H](O)[C@H]21 [compound 3, Notoether C] |  | 2000 |  | 1.6
3 | C=C[C@@H](O)C#CC#C[C@H](/C=C\CCCCCCC)O[C@]1(C)CCC[C@]2(C)CC[C@@H](C(C)(C)O)C[C@H]21 [compound 2, Notoether B] |  | 1700 |  | 2.0
4 | C=C[C@H](C#CC#C[C@@H](O)/C=C\CCCCCCC)O[C@]1(C)CCC[C@]2(C)CC[C@@H](C(C)(C)O)C[C@H]21 [compound 1, Notoether A] |  | 1900 |  | 1.6
5 | C=C[C@H]1OCc2cc3cc(OC)c(O)cc3c(C#C[C@@H](O)/C=C\CCCCCCC)c21 [compound 10, Notoincisol B] |  | 1700 |  | 2.3
